Where a name gives a salt, the structure may show the parent alone.

We go through 9 compounds from patent US20260109732A1, “LIPID AMINES” (ModernaTX, Inc., priority 2021, published 2026).

Data set [1] can be described thus: Diameter and PDI from DLS measurements of mRNA nanoparticles with lipid amines. Type of data set: physicochemical. The method, boiled down:
(§1)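 Ionizable lipid nanoparticles (IL1:DSPC:cholesterol:PEG-DMG-2K) formed by vortex mixing at pH 4, loaded with luciferase or CFTR mRNA at N:P 4.93, neutralized with TRIS pH 8.12, then modified with lipid amine SA50 at pH 7.5. Particle diameter and PDI read by DLS; mRNA encapsulation by Ribogreen assay.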

A short description of data set [2]: Encapsulation of mRNA nanoparticles with lipid amines using Ribogreen assay. It counts as physicochemical. In short, it runs like this:
as §1

Data set [3] relates to HeLa cells. As to the kind of experiment: Luciferase Protein Expression Assay in HeLa Cells. Type of data set: cell-based, Human. Particulars: LNPs encapsulating Luciferase mRNA, 25 ng per well, N=4 wells; 5 h serum-free then 24 h; ONE-Glo. In short, it runs like this:
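HeLa cells received LNPs carrying luciferase mRNA (25 ng per well) or PBS in serum-free MEM for 5 h, then complete MEM for a further 24 h. Luciferase then read by ONE-Glo luminescence after lysis and reported as average RLU of 4 replicate wells.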

The subject of data set [4] is HeLa cells. As to the kind of experiment: CFTR Protein Expression Assay in HeLa Cells. Type of data set: cell-based, Human. Particulars: LNPs encapsulating CFTR mRNA, N=4 wells; 5 h serum-free then 24 h; immunofluorescence vs PBS control. In short, it runs like this: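 HeLa cells dosed with CFTR mRNA LNPs (70 mM NaCl final buffer matrix) in serum-free MEM for 5 h, then complete MEM for 24 h. Fixed cells immunostained with anti-CFTR monoclonal and Alexa 488 secondary, imaged confocally; CFTR intensity per cell expressed as fold-change versus PBS buffer control, N=4 wells.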

[5] abbreviates: CFTR mRNA nanoparticle with lipid amine.
Where [6] appears, read: Luciferase mRNA nanoparticle modified with lipid amine.

Turning to `CC(C)CCC[C@@H](C)[C@H]1CC[C@H]2[C@@H]3CC=C4C[C@@H](SSCCC(=O)N(CCCN)CCCCCCCCN)CC[C@]4(C)[C@H]3CC[C@]12C` [SA97, N-(8-Aminooctyl)-N-(3-aminopropyl)-3-(((3S,8S,9S,10R,13R,14S,17R)-10,13-dimethyl-17-((R)-6-methylheptan-2-yl)-2,3,4,7,8,9,10,11,12,13,14,15,16,17-tetradecahydro-1H-cyclopenta[a]phenanthren-3-yl)disulfaneyl)propanamide dihydrochloride], the “Diameter (nm)” value in data set [1] (setting [5]) was found to be 83.2 nm; in data set [1] (setting [6]) it was 72 nm. The PDI is given as 0.12 in data set [1] (setting [5]) and 0.16 in data set [1] (setting [6]). The “% Encapsulation (Ribogreen)” value in data set [2] (setting [5]) was determined as 98.4%; in data set [2] (setting [6]), 98.8%. Moreover, in the data set with HeLa cells [3], the “Average Relative Light Units ± Standard Deviation” value amounted to 13144.4 ± 4350.5 Relative Light Units. Moreover, the “Average fold-change in CFTR signal intensity per cell compared to buffer control ± standard deviation” value in the data set on HeLa cells [4] is recorded as 5.3 ± 1.0 fold-change.
As for `CC(C)CCC[C@@H](C)[C@H]1CC[C@H]2[C@@H]3CC=C4C[C@@H](OC(=O)CSSCC(=O)N(CCCN)CCCCNCCCN)CC[C@]4(C)[C@H]3CC[C@]12C` [SA98, (3S,8S,9S,10R,13R,14S,17R)-10,13-dimethyl-17-((R)-6-methylheptan-2-yl)-2,3,4,7,8,9,10,11,12,13,14,15,16,17-tetradecahydro-1H-cyclopenta[a]phenanthren-3-yl 2-((2-((3-aminopropyl)(4-((3-aminopropyl)amino)butyl)amino)-2-oxoethyl)disulfaneyl)acetate trihydrochloride], the “Diameter (nm)” value in data set [1] (setting [5]) is reported as 82.8 nm; in data set [1] (setting [6]), 70 nm. The results for the PDI in data set [1] (setting [5]) and in data set [1] (setting [6]) were 0.14 and 0.15, respectively. The “% Encapsulation (Ribogreen)” value came to 93% in data set [2] (setting [5]) and 97.0% in data set [2] (setting [6]). Also, the “Average Relative Light Units ± Standard Deviation” value in the data set with HeLa cells [3] was 80.7 ± 36.7 Relative Light Units. Further, the “Average fold-change in CFTR signal intensity per cell compared to buffer control ± standard deviation” value in the data set with HeLa cells [4] came out at 1.0 ± 0 fold-change.
Take `CC(C)CCC[C@@H](C)[C@H]1CC[C@H]2[C@@H]3CC=C4C[C@@H](SSCCCCC(=O)N(CCCN)CCCCCCCCN)CC[C@]4(C)[C@H]3CC[C@]12C` [SA110, N-(8-Aminooctyl)-N-(3-aminopropyl)-5-(((3S,8S,9S,10R,13R,14S,17R)-10,13-dimethyl-17-((R)-6-methylheptan-2-yl)-2,3,4,7,8,9,10,11,12,13,14,15,16,17-tetradecahydro-1H-cyclopenta[a]phenanthren-3-yl)disulfaneyl)pentanamide dihydrochloride]: the “Diameter (nm)” value in data set [1] (setting [5]) is recorded as 84.2 nm; in data set [1] (setting [6]), 70 nm. For the same compound, the PDI was found to be 0.15 in data set [1] (setting [5]) and 0.14 in data set [1] (setting [6]). In addition, the “% Encapsulation (Ribogreen)” value in data set [2] (setting [5]) and in data set [2] (setting [6]) was 98.8% each time. Besides, the “Average Relative Light Units ± Standard Deviation” value in the data set with HeLa cells [3] is reported as 14227 ± 2513.9 Relative Light Units. Moreover, the “Average fold-change in CFTR signal intensity per cell compared to buffer control ± standard deviation” value in the data set with HeLa cells [4] is listed as 4.0 ± 0.2 fold-change.
In the case of `CC[C@H](CC[C@@H](C)[C@H]1CC[C@H]2[C@@H]3CC=C4C[C@@H](OC(=O)N(CCCCNCCC(C)(C)N)CCC(C)(C)N)CC[C@]4(C)[C@H]3CC[C@]12C)C(C)C` [SA114, (3S,8S,9S,10R,13R,14S,17R)-17-((2R,5R)-5-ethyl-6-methylheptan-2-yl)-10,13-dimethyl-2,3,4,7,8,9,10,11,12,13,14,15,16,17-tetradecahydro-1H-cyclopenta[a]phenanthren-3-yl (3-amino-3-methylbutyl)(4-((3-amino-3-methylbutyl)amino)butyl)carbamate trihydrochloride], the results for the “Diameter (nm)” value in data set [1] (setting [5]) and in data set [1] (setting [6]) were 85.9 nm and 75 nm, respectively. Besides, the PDI was 0.13 in data set [1] (setting [5]) and 0.18 in data set [1] (setting [6]). Moreover, the “% Encapsulation (Ribogreen)” value in data set [2] (setting [5]) was determined as 98.5%; in data set [2] (setting [6]) it was 99.7%. Moreover, the “Average Relative Light Units ± Standard Deviation” value in the data set with HeLa cells [3] is recorded as 22594.3 ± 9128.4 Relative Light Units. For the same compound, the “Average fold-change in CFTR signal intensity per cell compared to buffer control ± standard deviation” value in the data set on HeLa cells [4] was 6.3 ± 1.3 fold-change.
For `CC[C@H](CC[C@@H](C)[C@H]1CC[C@H]2[C@@H]3CC=C4C[C@@H](OC(=O)CCCC(=O)N(CCCN)CCCCNCCCN)CC[C@]4(C)[C@H]3CC[C@]12C)C(C)C` [SA117, (3S,8S,9S,10R,13R,14S,17R)-17-((2R,5R)-5-ethyl-6-methylheptan-2-yl)-10,13-dimethyl-2,3,4,7,8,9,10,11,12,13,14,15,16,17-tetradecahydro-1H-cyclopenta[a]phenanthren-3-yl 5-((3-aminopropyl)(4-((3-aminopropyl)amino)butyl)amino)-5-oxopentanoate trihydrochloride], the figures for the “Diameter (nm)” value in data set [1] (setting [5]) and in data set [1] (setting [6]) were 94.7 nm and 77 nm, respectively. In addition, the figures for the PDI in data set [1] (setting [5]) and in data set [1] (setting [6]) were 0.17 and 0.28, respectively. For the same compound, the results for the “% Encapsulation (Ribogreen)” value in data set [2] (setting [5]) and in data set [2] (setting [6]) were 98.6% and 99.7%, respectively. The “Average Relative Light Units ± Standard Deviation” value with HeLa cells [3] amounted to 10134.1 ± 3860.2 Relative Light Units. Also, the “Average fold-change in CFTR signal intensity per cell compared to buffer control ± standard deviation” value with HeLa cells [4] came to 4.9 ± 1.2 fold-change.
For `CC[C@H](CC[C@@H](C)[C@H]1CC[C@H]2[C@@H]3CC=C4C[C@@H](OC(=O)[C@H](C)N(CCCN)CCCCNCCCN)CC[C@]4(C)[C@H]3CC[C@]12C)C(C)C` [SA118, (3S,8S,9S,10R,13R,14S,17R)-17-((2R,5R)-5-ethyl-6-methylheptan-2-yl)-10,13-dimethyl-2,3,4,7,8,9,10,11,12,13,14,15,16,17-tetradecahydro-1H-cyclopenta[a]phenanthren-3-yl N-(3-aminopropyl)-N-(4-((3-aminopropyl)amino)butyl)alaninate tetrahydrochloride], the entries for the “Diameter (nm)” value in data set [1] (setting [5]) and in data set [1] (setting [6]) were 89.9 nm and 74 nm, respectively. Also, the PDI in data set [1] (setting [5]) is reported as 0.16; in data set [1] (setting [6]) it was 0.19. The “% Encapsulation (Ribogreen)” value in data set [2] (setting [5]) turned out to be 97.9%; in data set [2] (setting [6]) it was 99.7%. In addition, the “Average Relative Light Units ± Standard Deviation” value with HeLa cells [3] stood at 12261.7 ± 4328.5 Relative Light Units. For the same compound, the “Average fold-change in CFTR signal intensity per cell compared to buffer control ± standard deviation” value with HeLa cells [4] is 9.7 ± 1.2 fold-change.
With `CC[C@H](CC[C@@H](C)[C@H]1CC[C@H]2[C@@H]3CC=C4C[C@@H](OC(=O)CN(CCCN)CCCCNCCCN)CC[C@]4(C)[C@H]3CC[C@]12C)C(C)C` [SA119, (3S,8S,9S,10R,13R,14S,17R)-17-((2R,5R)-5-ethyl-6-methylheptan-2-yl)-10,13-dimethyl-2,3,4,7,8,9,10,11,12,13,14,15,16,17-tetradecahydro-1H-cyclopenta[a]phenanthren-3-yl N-(3-aminopropyl)-N-(4-((3-aminopropyl)amino)butyl)glycinate tetrahydrochloride], the “Diameter (nm)” value in data set [1] (setting [5]) was 88.3 nm; in data set [1] (setting [6]), 78 nm. Further, the PDI stood at 0.15 in data set [1] (setting [5]) and 0.18 in data set [1] (setting [6]). For the same compound, the “% Encapsulation (Ribogreen)” value was 98.9% in data set [2] (setting [5]) and 99.4% in data set [2] (setting [6]). In addition, the “Average Relative Light Units ± Standard Deviation” value in the data set on HeLa cells [3] is 18979.6 ± 7864.8 Relative Light Units. Moreover, the “Average fold-change in CFTR signal intensity per cell compared to buffer control ± standard deviation” value with HeLa cells [4] stood at 5.7 ± 1.0 fold-change.
Regarding `CC[C@H](CC[C@@H](C)[C@H]1CC[C@H]2[C@@H]3CC=C4C[C@@H](OC(=O)N(CCCN)CCCCN)CC[C@]4(C)[C@H]3CC[C@]12C)C(C)C` [SA120, (3S,8S,9S,10R,13R,14S,17R)-17-((2R,5R)-5-Ethyl-6-methylheptan-2-yl)-10,13-dimethyl-2,3,4,7,8,9,10,11,12,13,14,15,16,17-tetradecahydro-1H-cyclopenta[a]phenanthren-3-yl (4-aminobutyl)(3-aminopropyl)carbamate dihydrochloride], the “Diameter (nm)” value in data set [1] (setting [5]) came to 83.6 nm; in data set [1] (setting [6]) it was 76 nm. Further, the figures for the PDI in data set [1] (setting [5]) and in data set [1] (setting [6]) were 0.14 and 0.28, respectively. In addition, the “% Encapsulation (Ribogreen)” value is on record as 97.5% in data set [2] (setting [5]) and 99.1% in data set [2] (setting [6]). In addition, in the data set on HeLa cells [3], the “Average Relative Light Units ± Standard Deviation” value is given as 34695.5 ± 9492.2 Relative Light Units. Further, the “Average fold-change in CFTR signal intensity per cell compared to buffer control ± standard deviation” value in the data set with HeLa cells [4] is on record as 16.8 ± 1.1 fold-change.
For `CC(C)CCC[C@@H](C)[C@H]1CC[C@H]2[C@@H]3CC=C4C[C@@H](OC(=O)CN(CCCCCCCCN)C(=O)CCCCN)CC[C@]4(C)[C@H]3CC[C@]12C` [SA122, (3S,8S,9S,10R,13R,14S,17R)-10,13-Dimethyl-17-((R)-6-methylheptan-2-yl)-2,3,4,7,8,9,10,11,12,13,14,15,16,17-tetradecahydro-1H-cyclopenta[a]phenanthren-3-yl N-(8-aminooctyl)-N-(5-aminopentanoyl)glycinate dihydrochloride], the “Diameter (nm)” value is reported as 83.5 nm in data set [1] (setting [5]) and 75 nm in data set [1] (setting [6]). Besides, the PDI in data set [1] (setting [5]) turned out to be 0.13; in data set [1] (setting [6]), 0.15. Also, the “% Encapsulation (Ribogreen)” value in data set [2] (setting [5]) amounted to 98.6%; in data set [2] (setting [6]), 99.4%. In the data set with HeLa cells [3], the “Average Relative Light Units ± Standard Deviation” value turned out to be 29605.6 ± 6326.9 Relative Light Units. Also, the “Average fold-change in CFTR signal intensity per cell compared to buffer control ± standard deviation” value in the data set with HeLa cells [4] is given as 14.8 ± 1.1 fold-change.
